Measurements from article PMC9760430, “A stapled chromogranin A-derived peptide homes in on tumors that express αvβ6 or αvβ8 integrins” (International Journal of Biological Sciences, 2023).
Peptide text beside a SMILES is read from it. * marks the point of attachment. X1 = CC1(C)C(/C=C/C2=C(Oc3ccc(S(=O)(=O)O)cc3)C(=C\C=C3/N(CCCCCC(=O)NCCN4C(=O)CC(*)C4=O)c4ccc(S(=O)(=O)O)cc4C3(C)C)/CCC2)=[N+](CCCCS(=O)(=O)O)c2ccc(S(=O)(=O)[O-])cc21

Legend:
Human αvβ6 = target: T1, Human αvβ6 (Homo sapiens, UniProt P06756+P18564); assay: direct integrin binding assay of peptide-IRDye conjugates, human αvβ6-coated plates; details: plates coated with recombinant human αvβ6; conjugate 0.01-100 nM, 1 h; bound NIR fluorescence (Odyssey CLx); mean ± SE, n = 2 experiments
T1 construct: purchased Bio-Techne
T1 sequence (P06756 31-992 limits assumed): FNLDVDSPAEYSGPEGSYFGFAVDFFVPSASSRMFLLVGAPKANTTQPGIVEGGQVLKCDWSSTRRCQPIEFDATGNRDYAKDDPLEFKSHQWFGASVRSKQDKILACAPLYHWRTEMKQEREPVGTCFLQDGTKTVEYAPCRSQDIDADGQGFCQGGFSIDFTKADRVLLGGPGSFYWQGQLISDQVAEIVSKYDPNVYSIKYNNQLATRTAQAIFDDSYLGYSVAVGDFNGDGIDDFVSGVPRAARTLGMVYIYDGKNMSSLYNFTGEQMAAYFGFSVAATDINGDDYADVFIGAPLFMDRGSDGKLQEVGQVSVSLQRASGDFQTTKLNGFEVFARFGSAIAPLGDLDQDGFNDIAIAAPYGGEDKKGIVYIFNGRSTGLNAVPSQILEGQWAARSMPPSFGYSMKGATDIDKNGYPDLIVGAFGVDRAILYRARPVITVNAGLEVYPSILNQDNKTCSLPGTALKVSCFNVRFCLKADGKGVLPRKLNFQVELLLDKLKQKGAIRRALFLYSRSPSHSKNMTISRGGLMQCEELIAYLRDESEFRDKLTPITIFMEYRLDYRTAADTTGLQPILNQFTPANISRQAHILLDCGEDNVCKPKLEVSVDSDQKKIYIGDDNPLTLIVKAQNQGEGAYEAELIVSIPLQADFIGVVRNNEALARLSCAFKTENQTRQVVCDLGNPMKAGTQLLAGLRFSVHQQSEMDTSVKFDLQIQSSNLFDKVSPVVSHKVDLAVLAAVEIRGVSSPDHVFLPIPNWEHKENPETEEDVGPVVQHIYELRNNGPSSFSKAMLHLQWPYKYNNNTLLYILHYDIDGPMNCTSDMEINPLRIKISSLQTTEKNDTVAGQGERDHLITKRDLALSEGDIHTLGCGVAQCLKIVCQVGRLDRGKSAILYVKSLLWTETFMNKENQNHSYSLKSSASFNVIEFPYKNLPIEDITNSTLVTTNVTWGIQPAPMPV
T1 sequence (P18564 22-707 limits assumed): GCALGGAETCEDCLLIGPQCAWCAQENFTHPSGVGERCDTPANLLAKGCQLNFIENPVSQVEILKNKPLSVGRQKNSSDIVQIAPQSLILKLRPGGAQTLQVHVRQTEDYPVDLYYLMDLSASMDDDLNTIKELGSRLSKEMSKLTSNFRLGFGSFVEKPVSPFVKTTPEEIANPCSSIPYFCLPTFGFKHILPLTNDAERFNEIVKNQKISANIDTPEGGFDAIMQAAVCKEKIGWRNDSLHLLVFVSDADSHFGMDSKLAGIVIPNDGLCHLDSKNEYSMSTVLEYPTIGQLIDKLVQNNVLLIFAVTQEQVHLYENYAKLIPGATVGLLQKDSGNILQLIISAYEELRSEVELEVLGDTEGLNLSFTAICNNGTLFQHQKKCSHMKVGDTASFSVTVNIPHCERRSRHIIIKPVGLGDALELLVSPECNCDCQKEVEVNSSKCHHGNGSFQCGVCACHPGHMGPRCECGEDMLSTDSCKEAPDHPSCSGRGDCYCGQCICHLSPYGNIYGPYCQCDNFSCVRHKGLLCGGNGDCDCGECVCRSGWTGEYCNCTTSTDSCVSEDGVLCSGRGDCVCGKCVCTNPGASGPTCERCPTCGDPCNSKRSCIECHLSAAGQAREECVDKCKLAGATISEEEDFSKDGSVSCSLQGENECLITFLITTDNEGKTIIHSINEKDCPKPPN
Method: (§1) The affinity of peptide-IRDye conjugates for αvβ6 and αvβ8 integrins was determined by a direct binding assay using microtiter plates coated with αvβ6 or αvβ8 (Bio-Techne). After 1 h of incubation, the plates were washed; bound fluorescence was quantified by scanning the plates with an Odyssey CLx near-infrared fluorescence imaging system (LI-COR). […]
(§2) The simplified molecular-input line-entry system (SMILES) of 5a-, 2a-, Cys- and 5a-Scr- […]
(§3) The concentration of each conjugate was quantified by spectrophotometric analysis at 774 nm (molar absorption coefficient, 240,000 M-1, cm-1) (Figure S3B). The final yield of 5a-IRDye […]
(§4) Binding of peptide-IRDye conjugates to avb6 and avb8 integrin
(§5) The binding affinity of peptide-IRDye conjugates for human and murine avb6 and avb8 integrins was determined as follows: 96-well clear-bottom black microtiter plates (Corning® cat. 3601) were coated with 2 μg/ml avb6 or avb8 (50 µl/well), in Dulbecco’s phosphate-buffered saline containing Ca2+ and Mg2+ (DPBS) and left to incubate overnight at 4°C. […]
(§6) conjugates were added to the microtiterplates and incubated at room temperature for 1 h (see Experimental Section). After washing, bound fluorescence was measured using an Odyssey CLx (LI-COR) scanner. Representative images of the scanned plates and quantification of binding are shown. […]

Human αvβ8 = target: T2, Human αvβ8 (Homo sapiens, UniProt P06756+P26012); assay: direct integrin binding assay of peptide-IRDye conjugates, human αvβ8-coated plates; details: plates coated with recombinant human αvβ8; conjugate 0.01-100 nM, 1 h; bound NIR fluorescence; mean ± SE, n = 2 experiments
T2 construct: purchased Bio-Techne
T2 sequence (P06756 31-992 limits assumed): as the sequence (P06756 31-992 limits assumed) above
T2 sequence (P26012 43-684 limits assumed): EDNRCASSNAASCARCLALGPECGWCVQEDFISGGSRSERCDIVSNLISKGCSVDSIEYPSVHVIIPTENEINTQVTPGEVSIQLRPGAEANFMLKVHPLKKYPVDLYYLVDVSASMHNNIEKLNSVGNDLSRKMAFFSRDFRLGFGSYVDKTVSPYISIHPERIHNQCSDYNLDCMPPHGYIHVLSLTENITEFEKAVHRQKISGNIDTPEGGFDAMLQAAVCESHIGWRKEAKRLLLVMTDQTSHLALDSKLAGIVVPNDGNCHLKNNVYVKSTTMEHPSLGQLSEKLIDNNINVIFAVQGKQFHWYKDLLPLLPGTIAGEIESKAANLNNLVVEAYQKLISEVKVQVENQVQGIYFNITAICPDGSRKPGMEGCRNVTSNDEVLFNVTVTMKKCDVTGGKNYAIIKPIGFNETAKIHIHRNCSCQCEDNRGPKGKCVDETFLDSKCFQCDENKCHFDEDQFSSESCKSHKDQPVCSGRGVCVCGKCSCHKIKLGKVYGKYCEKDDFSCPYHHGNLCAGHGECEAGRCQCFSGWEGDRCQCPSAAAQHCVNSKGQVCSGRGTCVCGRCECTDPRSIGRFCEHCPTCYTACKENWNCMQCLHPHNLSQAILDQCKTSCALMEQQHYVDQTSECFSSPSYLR
Method: as §1, §2, §3, §4, §5, §6

[1] = test system: orthotopically implanted BxPC-3 tumors; assay: NIR-fluorescence imaging, orthotopic BxPC-3 pancreatic adenocarcinoma in nude mice; details: ex vivo NIR fluorescence, 24 h after 1.2 nmol i.v.
Method: Mice were injected with peptide-IRDye conjugate (~1 nmol) into the tail vein and imaged at various time points (0-72 h) using the IVIS Spectrum CT Imaging System (PerkinElmer) (see Supplemental Materials). For blocking experiments, mice were injected intravenously with unlabeled peptide 5a (128 nmol/mouse) 10 min before 5a-IRDye.
Figure 3 5a-IRDye homes in on orthotopically implanted BxPC-3 tumors. Nu/nu mice were orthotopically implanted with a Matrigel solution containing BxPC-3 cells or a Matrigel solution without cells (n=3-4 mice). After 18 days, mice were injected i.v. with 5a-IRDye (1.2 nmol), and NIR images were acquired after 24 h. A control mouse, which was not surgically manipulated, was injected with the vehicle and used as a reference for quantification of autofluorescence in the NIR region. (A) Representative fluorescence images of the exposed pancreas of control and tumor-bearing mice injected with or without 5a-IRDye as indicated. (B) Ex vivo fluorescence imaging and photographs of the removed pancreas. […]
Images were acquired with three-four mice simultaneously. […] For the quantification of the fluorescence uptake by the exposed pancreas the left kidney was surgically removed before imaging. Regions of interest (ROI) were drawn on the images, and the average (Avg) radiant efficiency was calculated using the Living Image 4.3.1 software (PerkinElmer). […]

| EC50 (Human αvβ6) | EC50 (Human αvβ8) | SMILES | accumulation in other explanted organs [1] |
| --- | --- | --- | --- |
| > 0.1 µM | > 0.1 µM | CC[C@H](C)[C@H](NC(=O)[C@H](CCCNC(=N)N)NC(=O)[C@H](CCC(=O)O)NC(=O)[C@H](CCC(=O)O)NC(=O)CNC(=O)[C@H](CCCNC(=N)N)NC(=O)[C@H](CC(C)C)NC(=O)[C@@H](NC(=O)[C@H](CCC(=O)O)NC(=O)[C@H](Cc1ccccc1)NC(=O)[C@@H](N)CSC1CC(=O)N(CCNC(=O)CCCCCN2/C(=C\C=C3\CCCC(/C=C/C4=[N+](CCCCS(=O)(=O)O)c5ccc(S(=O)(=O)[O-])cc5C4(C)C)=C3Oc3ccc(S(=O)(=O)O)cc3)C(C)(C)c3cc(S(=O)(=O)O)ccc32)C1=O)[C@@H](C)O)C(=O)N[C@@H](CC(C)C)C(=O)N[C@@H](CO)C(=O)N[C@H](C(=O)N[C@@H](CC(C)C)C(=O)N[C@@H](CCCNC(=N)N)C(=O)N[C@@H](Cc1c[nH]cn1)C(=O)N[C@@H](CCC(N)=O)C(=O)N[C@@H](CC(N)=O)C(=O)N[C@@H](CC(C)C)C(=O)N[C@@H](CC(C)C)C(=O)N[C@@H](CCCCN)C(=O)N[C@@H](CCC(=O)O)C(=O)N[C@@H](CC(C)C)C(=O)N[C@@H](CCC(N)=O)C(=O)N[C@@H](CC(=O)O)C(N)=O)[C@@H](C)CC (some centres unmarked) [2a-IRDye] (H-C(X1)FETLRGEERILSILRHQNLLKELQD-NH2) |  |
|  |  | CC[C@H](C)[C@H](NC(=O)[C@H](CCCNC(=N)N)NC(=O)[C@H](CC(C)C)NC(=O)[C@H](CC(=O)O)NC(=O)CNC(=O)[C@H](CCCNC(=N)N)NC(=O)[C@H](CC(C)C)NC(=O)[C@@H](NC(=O)[C@H](CCC(=O)O)NC(=O)[C@H](Cc1ccccc1)NC(=O)[C@@H](N)CSC1CC(=O)N(CCNC(=O)CCCCCN2C(=CC=C3CCCC(C=CC4=[N+](CCCCS(=O)(=O)[O-])c5ccc(S(=O)(=O)O)cc5C4(C)C)=C3Oc3ccc(S(=O)(=O)O)cc3)C(C)(C)c3cc(S(=O)(=O)O)ccc32)C1=O)[C@@H](C)O)C(=O)N[C@@H](CC(C)C)C(=O)N[C@@H](CO)C(=O)N[C@H](C(=O)N[C@@H](CC(C)C)C(=O)N[C@@H](CCCNC(=N)N)C(=O)N[C@H]1Cc2cn(nn2)CCCC[C@@H](C(=O)N[C@@H](CCCCN)C(=O)N[C@@H](CCC(=O)O)C(=O)N[C@@H](CC(C)C)C(=O)N[C@@H](CCC(N)=O)C(=O)N[C@@H](CC(=O)O)C(N)=O)NC(=O)[C@H](CC(C)C)NC(=O)[C@H](CC(N)=O)NC(=O)[C@H](CCC(N)=O)NC1=O)[C@@H](C)CC (some centres unmarked) [5a-IRDye] | accumulated also in kidney, lung, and liver, and little or not at all in heart, brain, muscle, bone, spleen, intestine, and stomach |
| > 0.1 µM | > 0.1 µM | CC1(C)C(/C=C/C2=C(Oc3ccc(S(=O)(=O)O)cc3)C(=C\C=C3/N(CCCCCC(=O)NCCN4C(=O)CC(SC[C@H](N)C(=O)O)C4=O)c4ccc(S(=O)(=O)O)cc4C3(C)C)/CCC2)=[N+](CCCCS(=O)(=O)O)c2ccc(S(=O)(=O)[O-])cc21 (some centres unmarked) [Cys-IRDye] |  |
